Results on one compound are retold here after ChEMBL document CHEMBL3638647, “Compounds useful as inhibitors of ATR kinase” (2014).

For the experiment, the target named is Serine/threonine-protein kinase ATR (Homo sapiens, UniProt Q13535). Briefly: Inhibition Assay: Compounds were screened for their ability to inhibit ATR kinase using a radioactive-phosphate incorporation assay. Assays were carried out in a mixture of 50 mM Tris/HCl (pH 7.5), 10 mM MgCl2 and 1 mM DTT. Final substrate concentrations were 10 Î¼M [Î³-33P]ATP (3mCi 33P ATP/mmol ATP, Perkin Elmer) and 800 Î¼M target peptide (ASELPASQPQPFSAKKK).Assays were carried out at 25° C. in the presence of 5 nM full-length ATR. An assay stock buffer solution was prepared containing all of the reagents listed above, with the exception of ATP and the test compound of interest. 13.5 Î¼L of the stock solution was placed in a 96 well plate followed by addition of 2 Î¼L of DMSO stock containing serial dilutions of the test compound (typically starting from a final concentration of 15 Î¼M with 3-fold serial dilutions) in duplicate (final DMSO concentration 7%). The plate was pre-incubated for 10 minutes at 25° C. and the reaction initiated by addition of 15 Î¼L [Î³-33P]ATP.
Chain of Serine/threonine-protein kinase ATR (Q13535 whole entry): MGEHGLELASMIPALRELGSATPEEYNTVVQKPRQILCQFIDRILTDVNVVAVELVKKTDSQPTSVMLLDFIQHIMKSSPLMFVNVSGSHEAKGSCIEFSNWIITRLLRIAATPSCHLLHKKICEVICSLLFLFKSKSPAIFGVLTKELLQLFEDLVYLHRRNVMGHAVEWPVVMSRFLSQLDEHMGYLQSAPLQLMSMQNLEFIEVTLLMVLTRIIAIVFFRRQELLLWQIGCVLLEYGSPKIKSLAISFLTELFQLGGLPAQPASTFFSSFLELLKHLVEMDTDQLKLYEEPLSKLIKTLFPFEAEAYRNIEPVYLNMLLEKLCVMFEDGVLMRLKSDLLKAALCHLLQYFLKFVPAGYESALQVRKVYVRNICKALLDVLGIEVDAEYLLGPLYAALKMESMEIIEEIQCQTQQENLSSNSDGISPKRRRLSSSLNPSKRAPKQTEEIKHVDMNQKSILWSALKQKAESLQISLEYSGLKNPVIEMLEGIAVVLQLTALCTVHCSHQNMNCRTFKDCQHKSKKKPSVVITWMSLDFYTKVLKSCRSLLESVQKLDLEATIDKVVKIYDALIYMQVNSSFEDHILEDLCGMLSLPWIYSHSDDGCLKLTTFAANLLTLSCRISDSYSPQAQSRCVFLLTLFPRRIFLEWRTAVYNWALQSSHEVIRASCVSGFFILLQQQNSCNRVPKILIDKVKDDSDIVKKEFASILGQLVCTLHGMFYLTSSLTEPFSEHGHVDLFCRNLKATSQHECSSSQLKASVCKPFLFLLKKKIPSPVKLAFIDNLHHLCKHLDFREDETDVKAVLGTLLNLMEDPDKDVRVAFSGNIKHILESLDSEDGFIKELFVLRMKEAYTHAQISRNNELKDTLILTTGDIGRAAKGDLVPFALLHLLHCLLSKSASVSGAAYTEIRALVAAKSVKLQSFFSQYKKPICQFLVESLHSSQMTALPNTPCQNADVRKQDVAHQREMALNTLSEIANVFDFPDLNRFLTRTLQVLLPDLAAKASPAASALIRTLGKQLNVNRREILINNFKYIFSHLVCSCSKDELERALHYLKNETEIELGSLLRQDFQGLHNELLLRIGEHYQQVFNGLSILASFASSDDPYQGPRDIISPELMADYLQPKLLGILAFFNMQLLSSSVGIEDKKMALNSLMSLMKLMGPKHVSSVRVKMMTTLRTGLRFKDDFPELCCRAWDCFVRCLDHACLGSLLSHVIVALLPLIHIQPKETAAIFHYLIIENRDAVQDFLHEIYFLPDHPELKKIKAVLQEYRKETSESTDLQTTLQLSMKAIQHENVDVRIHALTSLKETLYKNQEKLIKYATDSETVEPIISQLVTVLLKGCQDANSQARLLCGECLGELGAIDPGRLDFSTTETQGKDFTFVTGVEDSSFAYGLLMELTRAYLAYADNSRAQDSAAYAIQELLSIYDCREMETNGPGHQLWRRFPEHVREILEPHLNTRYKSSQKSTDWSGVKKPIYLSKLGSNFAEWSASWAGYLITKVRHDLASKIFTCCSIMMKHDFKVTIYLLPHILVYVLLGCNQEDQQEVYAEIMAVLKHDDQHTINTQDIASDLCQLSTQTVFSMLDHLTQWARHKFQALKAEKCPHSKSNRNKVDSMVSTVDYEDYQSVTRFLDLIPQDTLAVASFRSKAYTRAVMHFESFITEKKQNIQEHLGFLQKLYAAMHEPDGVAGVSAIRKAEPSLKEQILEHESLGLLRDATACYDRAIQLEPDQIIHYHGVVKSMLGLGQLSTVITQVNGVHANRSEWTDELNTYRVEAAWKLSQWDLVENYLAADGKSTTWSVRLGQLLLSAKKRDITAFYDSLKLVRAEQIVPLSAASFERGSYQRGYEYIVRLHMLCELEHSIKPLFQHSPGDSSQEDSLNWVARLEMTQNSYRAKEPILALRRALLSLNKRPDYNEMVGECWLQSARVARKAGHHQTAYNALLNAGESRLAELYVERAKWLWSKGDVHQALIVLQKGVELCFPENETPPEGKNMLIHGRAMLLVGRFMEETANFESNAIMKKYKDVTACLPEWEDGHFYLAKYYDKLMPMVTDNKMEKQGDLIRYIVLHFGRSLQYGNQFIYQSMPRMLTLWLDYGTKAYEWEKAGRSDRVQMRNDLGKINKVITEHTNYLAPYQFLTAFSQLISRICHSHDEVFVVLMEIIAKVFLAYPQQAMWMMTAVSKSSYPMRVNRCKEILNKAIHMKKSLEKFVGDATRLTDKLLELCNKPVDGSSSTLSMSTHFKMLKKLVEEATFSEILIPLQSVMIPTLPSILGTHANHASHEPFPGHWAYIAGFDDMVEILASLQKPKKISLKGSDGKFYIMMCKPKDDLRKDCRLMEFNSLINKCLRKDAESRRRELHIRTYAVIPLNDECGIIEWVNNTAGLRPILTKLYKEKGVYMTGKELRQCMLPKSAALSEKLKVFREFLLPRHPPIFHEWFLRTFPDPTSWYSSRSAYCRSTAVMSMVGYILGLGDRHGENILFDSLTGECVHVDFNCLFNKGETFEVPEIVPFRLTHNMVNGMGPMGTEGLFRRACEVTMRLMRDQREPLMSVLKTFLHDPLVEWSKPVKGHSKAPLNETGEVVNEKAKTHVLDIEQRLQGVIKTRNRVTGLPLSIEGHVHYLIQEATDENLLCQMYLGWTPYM

Regarding `CNCc1ccc(C2=NOC(c3nc(-c4ccc(S(=O)(=O)C(C)C)cc4)cnc3N)C2)cc1` (stereo unspecified), the Ki – broadly, the equilibrium dissociation constant of an inhibitor or competing ligand from its target – turned out to be 90 nM.
